Entries after “also recorded” stand apart in the source; their conditions may differ. Where two headings read alike, the source gives them in different places.
What was measured:
[1] = molecular target: T1, T4 lysozyme L99A/M102Q (Enterobacteria phage T4, UniProt P00720, C54T/C97A/L99A/M102Q); format: binding
[2] = molecular target: T1, T4 lysozyme L99A/M102Q; settings: cited from earlier work
[3] = molecular target: T1, T4 lysozyme L99A/M102Q; experiment: biochemical; format: binding
[4] = free energy of binding by ITC at 10°C, pH 6.8, prospective set

c1cc2c([nH]1)CCCC2 [4,5,6,7-tetrahydroindole]
ΔGb,exp [1, 4]: -4.61 ± 0.09 kcal/mol

Oc1ccccc1O [catechol, reference compound]
ΔGb,exp [1]: -4.16 ± 0.03 kcal/mol | binding to L99A/M102Q (known) ([2]; known ligands and non-binders): is a ligand

Nc1ccccc1O [2-aminophenol]
binding to L99A/M102Q (known) [2]: non-binder; also recorded: does not bind detectably

CCOC1CCC=CO1 (stereo not drawn) [2-ethoxy-3,4-dihydro-2h-pyran]
binding free energy, estimated [3]: -3.88 to -2.59 kcal/mol | ΔGb,exp (binding class) [3]: weak

CCOc1ccccc1O [2-ethoxyphenol]
ΔGb,exp [1]: -4.02 ± 0.03 kcal/mol

Cc1ccc(Cl)cc1O [5-chloro-2-methylphenol]
ΔGb,exp [1]: -5.04 ± 0.07 kcal/mol

c1cc2sccc2s1 [thieno[3,2-b]thiophene]
ΔGb,exp [1, 4]: -4.67 ± 0.17 kcal/mol

C=Cc1ccncc1 [4-vinylpyridine]
binding to L99A/M102Q (known) ([2]; known ligands and non-binders): non-binder

Oc1ccccc1 [phenol]
ΔGb,exp [2]: -5.24 kcal/mol

O=[N+]([O-])c1cccs1 [2-nitrothiophene]
ΔGb,exp [1, 4]: -4.85 ± 0.25 kcal/mol

Cc1ccccc1O [2-methylphenol]
ΔGb,exp [1]: -4.44 ± 0.11 kcal/mol

CCc1ccccc1O [2-ethylphenol]
ΔGb,exp [1]: -4.57 ± 0.11 kcal/mol

Clc1cn[nH]c1 [4-chloro-1h-pyrazole]
binding free energy, estimated [3]: -3.88 to -2.59 kcal/mol | ΔGb,exp (binding class) [3]: weak

CC(=O)OCc1ccccc1 [benzyl acetate]
ΔGb,exp [1, 4]: -4.48 ± 0.16 kcal/mol

O=Nc1ccccc1 [nitrosobenzene]
binding free energy, estimated [3]: -3.88 to -2.59 kcal/mol | ΔGb,exp (binding class) [3]: weak | Kd ([3]; affinity estimated from concentration where significant Tm upshift was observed): ~1000 µM

CCCc1ccccc1O [2-propylphenol]
ΔGb,exp [1]: -5.33 ± 0.05 kcal/mol

— paper PMC2788029 (Journal of molecular biology, 2009)
